The numbers were not newly measured in US20260000700A1, “TARGETED LINEAR CONJUGATES COMPRISING POLYETHYLENEIMINE AND POLYETHYLENE GLYCOL AND POLYPLEXES COMPRISING THE SAME” (TARGIMMUNE THERAPEUTICS AG, priority 2022, published 2026), which cites them from elsewhere.

As a reminder, the Kd is the constant that tells how readily two partners part at equilibrium.

The target of the series is EGFR (Homo sapiens, UniProt P00533).

With YHWYGYTPQNVI [GE-11], the Kd is 22 nM.
